# Test results from patent US20260306640A1, “TECHNOLOGIES TARGETING CELL STATES” (Auron Therapeutics, Inc., priority 2023, published 2026).
# Target: KAT2A (Homo sapiens, UniProt Q92830)
# Experiment: KAT2A degradation, Western Blot (Jess), MOLM-13 cells
# Assay type: cell-based
# Design: degrader, Western blot
# Conditions: MOLM-13 cells, KAT2A, 24 h, Western Blot, vs DMSO; read-out: KAT2A MOLM-13 DC50
# Method: MOLM-13 cells or NCI-H1048 cells were used for Western Blot analysis of KAT2A degradation. KAT2B degradation can be measured in a similar manner with NCI-H1048 cells.
# MOLM-13 cells were maintained at 37° C. in 5% CO2 and 90% humidity in RPMI 1640 supplemented with 20% fetal bovine serum (FBS) and 1× penicillin/streptomycin. Cells were plated in full media at 1-2 million cells/2 mL in a 6-well tissue culture treated plate with or without compounds for 24 h at 37° C. in 5% CO2.
# MOLM-13 cells or NCI-H1048 cells were washed with PBS, then lysed with RIPA buffer containing 1×protease and phosphatase inhibitors (SantaCruz Biotechnologies Cat #sc-24948A). Protein was isolated by centrifugation at 12,000×g for 10 minutes at 4° C. and supernatant was collected. Protein was quantified via Bradford assay. Samples were diluted to 4 μg lysate in 16 μL RIPA buffer and then 4 μL of Jess Sample Buffer. Samples were heated at 95° C. for 5 minutes. Samples were loaded onto 12-230 kDa Jess™ Separation Module, 8×25 capillary cartridges (SM-W004, Biotechne). Antibodies loaded were: Primary antibody for KAT2A (GCN5L2 (C26A10) Rabbit mAb (3305, CST)) and for KAT2B (PCAF (C14G9)) Rabbit mAb (3378, CST) at 1:1000 and Anti-Rabbit Detection Module for Jess™ (Cat No #DM-001, Biotechne). Signal was detected by chemiluminescence.
# DC50 values were determined from percent reduction of protein as compared to the DMSO control.
# Sequence of KAT2A (Q92830 whole entry): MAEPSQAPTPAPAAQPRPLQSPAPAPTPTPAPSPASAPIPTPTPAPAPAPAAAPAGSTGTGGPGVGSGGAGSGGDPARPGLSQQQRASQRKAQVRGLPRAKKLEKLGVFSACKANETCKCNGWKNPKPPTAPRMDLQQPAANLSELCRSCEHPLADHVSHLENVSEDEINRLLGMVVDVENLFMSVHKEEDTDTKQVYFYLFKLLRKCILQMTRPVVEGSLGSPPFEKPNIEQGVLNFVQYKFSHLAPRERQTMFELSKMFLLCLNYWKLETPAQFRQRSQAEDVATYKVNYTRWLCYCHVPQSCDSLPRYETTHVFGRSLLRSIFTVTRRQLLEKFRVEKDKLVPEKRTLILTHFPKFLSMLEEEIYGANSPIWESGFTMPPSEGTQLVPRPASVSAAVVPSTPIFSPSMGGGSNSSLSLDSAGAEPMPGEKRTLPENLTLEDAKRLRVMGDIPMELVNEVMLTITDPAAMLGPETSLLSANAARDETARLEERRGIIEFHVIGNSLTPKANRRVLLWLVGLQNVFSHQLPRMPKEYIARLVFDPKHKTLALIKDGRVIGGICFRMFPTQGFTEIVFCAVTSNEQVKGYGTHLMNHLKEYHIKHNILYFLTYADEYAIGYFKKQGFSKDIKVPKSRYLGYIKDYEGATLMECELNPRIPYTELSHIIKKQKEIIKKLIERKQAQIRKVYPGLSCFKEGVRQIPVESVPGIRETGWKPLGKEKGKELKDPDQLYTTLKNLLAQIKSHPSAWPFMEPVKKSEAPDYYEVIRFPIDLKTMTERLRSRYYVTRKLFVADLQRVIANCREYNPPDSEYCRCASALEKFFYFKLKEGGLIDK
row,Structure (SMILES),DC50 [nM]
1,CN1C[C@H](Nc2cnn(C)c(=O)c2Br)C[C@H](c2ccc(CN3CC4(C3)CN(c3cccc5c3C(=O)N(C3CCC(=O)NC3=O)C5=O)C4)cc2)C1 (some centres unmarked) [Compound 51],> 30
2,CN1C[C@H](Nc2cnn(C)c(=O)c2Br)C[C@H](c2ccc(C(=O)N3CCN(Cc4cccc5c4C(=O)N(C4CCC(=O)NC4=O)C5=O)CC3)cc2)C1 (some centres unmarked) [Compound 52],< 1
3,CN1C[C@H](Nc2cnn(C)c(=O)c2Br)C[C@H](c2ccc(CN(C)c3ccc(Oc4cccc5c4C(=O)N(C4CCC(=O)NC4=O)C5=O)cc3)cc2)C1 (some centres unmarked) [Compound 53],1 to 30
4,CN1C[C@H](Nc2cnn(C)c(=O)c2Br)C[C@H](c2ccc(C(=O)N3CCC(C#CCOc4ccc5c(c4)C(=O)N(C4CCC(=O)NC4=O)C5=O)CC3)cc2)C1 (some centres unmarked) [Compound 54],< 1
5,CN1C[C@H](Nc2cnn(C)c(=O)c2Br)C[C@H](c2ccc(C(=O)N(C)Cc3ccc(COc4cccc5c4C(=O)N(C4CCC(=O)NC4=O)C5=O)cc3)cc2)C1 (some centres unmarked) [Compound 55],< 1
6,CN1C[C@H](Nc2nn(C)c(=O)n(C)c2=O)C[C@H](c2ccc(C(=O)N3CCN(Cc4ccc(C(=O)Nc5cccc6c5C(=O)N(C5CCC(=O)NC5=O)C6=O)cc4)CC3)cc2)C1 (some centres unmarked) [Compound 56],> 30
7,CN1C[C@H](Nc2cnn(C)c(=O)c2Br)C[C@H](c2ccc(C(=O)N3CCN(Cc4cccc(C(=O)Nc5cccc6c5C(=O)N(C5CCC(=O)NC5=O)C6=O)c4)CC3)cc2)C1 (some centres unmarked) [Compound 57],1 to 30
8,CN1C[C@H](Nc2cnn(C)c(=O)c2Br)C[C@H](c2ccc(CN3CCN(Cc4cccc5c4C(=O)N(C4CCC(=O)NC4=O)C5=O)CC3)cc2)C1 (some centres unmarked) [Compound 58],1 to 30
9,CN1C[C@H](Nc2cnn(C)c(=O)c2Br)C[C@H](c2ccc(C(=O)N3CC4(CN(Cc5cccc6c5C(=O)N(C5CCC(=O)NC5=O)C6=O)C4)C3)cc2)C1 (some centres unmarked) [Compound 59],1 to 30
10,CN1C[C@H](Nc2cnn(C)c(=O)c2Br)C[C@H](c2ccc(C(=O)N3CC4(CN(Cc5ccc6c(c5)C(=O)N(C5CCC(=O)NC5=O)C6=O)C4)C3)cc2)C1 (some centres unmarked) [Compound 60],1 to 30
11,CN1C[C@H](Nc2cnn(C)c(=O)c2Br)C[C@H](c2ccc(C(=O)N3CCN(Cc4ccc(C(=O)Nc5ccc6c(c5)C(=O)N(C5CCC(=O)NC5=O)C6=O)cc4)CC3)cc2)C1 (some centres unmarked) [Compound 61],1 to 30
12,CN1C[C@H](Nc2cnn(C)c(=O)c2Br)C[C@H](c2ccc(C(=O)N3CC(Oc4cccc5c4C(=O)N(C4CCC(=O)NC4=O)C5=O)C3)cc2)C1 (some centres unmarked) [Compound 62],1 to 30
13,CN1C[C@H](Nc2cnn(C)c(=O)c2Br)C[C@H](c2ccc(C(=O)N3CCC(c4ccc5c(c4)CN(C4CCC(=O)NC4=O)C5=O)CC3)cc2)C1 (some centres unmarked) [Compound 63],< 1
14,CN1C[C@H](Nc2cnn(C)c(=O)c2Br)C[C@H](c2ccc(CN3CC(Oc4cccc5c4C(=O)N(C4CCC(=O)NC4=O)C5=O)C3)cc2)C1 (some centres unmarked) [Compound 64],1 to 30
15,CN1C[C@H](Nc2cnn(C)c(=O)c2Br)C[C@H](c2ccc(COc3ccc4c(c3)CN(C3CCC(=O)NC3=O)C4=O)cc2)C1 (some centres unmarked) [Compound 65],> 30
16,CN1C[C@H](Nc2cnn(C)c(=O)c2Br)C[C@H](c2ccc(CN3CCC(c4ccc5c(c4)CN(C4CCC(=O)NC4=O)C5=O)CC3)cc2)C1 (some centres unmarked) [Compound 66],< 1
17,CN1C[C@H](Nc2ccn(C)c(=O)c2Br)C[C@H](c2ccc(CN3CCC(c4ccc5c(c4)CN(C4CCC(=O)NC4=O)C5=O)CC3)cc2)C1 (some centres unmarked) [Compound 68],< 1
18,CN1C[C@H](Nc2cnn(C)c(=O)c2Br)C[C@H](c2ccc(CN3CCN(c4ccc(C5CCC(=O)NC5=O)cc4)CC3)cc2)C1 (some centres unmarked) [Compound 69],< 1
19,CN1C[C@H](Nc2cnn(C)c(=O)c2Cl)C[C@H](c2ccc(CN3CCC(c4ccc5c(c4)CN(C4CCC(=O)NC4=O)C5=O)CC3)cc2)C1 (some centres unmarked) [Compound 70],< 1
20,CN1C[C@H](Nc2cnn(C)c(=O)c2Br)C[C@H](c2ccc(C(=O)N3CCN(Cc4ccc5c(c4)CN(C4CCC(=O)NC4=O)C5=O)CC3)cc2)C1 (some centres unmarked) [Compound 71],< 1
21,CN1C[C@H](Nc2cnn(C)c(=O)c2Br)C[C@H](c2ccc(C(=O)N3CCC(c4ccc5c(c4)CN(C4CCC(=O)NC4=O)C5=O)CC3)cc2)C1 (some centres unmarked) [Compound 73],1 to 30
22,CN1C[C@H](Nc2cnn(C)c(=O)c2Br)C[C@H](c2ccc(CN3CCN(Cc4ccc5c(c4)CN(C4CCC(=O)NC4=O)C5=O)CC3)cc2)C1 (some centres unmarked) [Compound 74],< 1
23,CN1C[C@H](Nc2cnn(C)c(=O)c2Cl)C[C@H](c2ccc(CN3CCN(Cc4ccc5c(c4)CN(C4CCC(=O)NC4=O)C5=O)CC3)cc2)C1 (some centres unmarked) [Compound 75],1 to 30
24,CN1C[C@H](Nc2cnn(C)c(=O)c2Cl)C[C@H](c2ccc(C(=O)N3CCN(Cc4ccc5c(c4)CN(C4CCC(=O)NC4=O)C5=O)CC3)cc2)C1 (some centres unmarked) [Compound 76],1 to 30
25,CN1C[C@H](Nc2cnn(C)c(=O)c2Cl)C[C@H](c2ccc(C(=O)N3CCC(c4ccc5c(c4)CN(C4CCC(=O)NC4=O)C5=O)CC3)cc2)C1 (some centres unmarked) [Compound 77],1 to 30
26,CN1C[C@H](Nc2cnn(C)c(=O)c2Br)C[C@H](c2ccc(CN3CCN(c4ccc(N5CCC(=O)NC5=O)cc4)CC3)cc2)C1 [Compound 78],> 30
27,CN1C[C@H](Nc2cnn(C)c(=O)c2Br)C[C@H](c2ccc(C(=O)N3CCN(Cc4cccc5c4CN(C4CCC(=O)NC4=O)C5=O)CC3)cc2)C1 (some centres unmarked) [Compound 79],1 to 30
28,CN1C[C@H](Nc2cnn(C)c(=O)c2Br)C[C@H](c2ccc(C(=O)N3CCN(Cc4ccc(C5CCC(=O)NC5=O)cc4)CC3)cc2)C1 (some centres unmarked) [Compound 80],< 1

# Second part, the molecule after the results:
row,DC50 [nM],Structure (SMILES)
1,1 to 30,CN1C[C@H](Nc2cnn(C)c(=O)c2Br)C[C@H](c2ccc(C(=O)N3CCC(c4ccc(C5CCC(=O)NC5=O)cc4)CC3)cc2)C1 (some centres unmarked) [Compound 81]
2,< 1,CN1C[C@H](Nc2cnn(C)c(=O)c2Br)C[C@H](c2ccc(C(=O)N3CCC4(CCN(c5ccc(C6CCC(=O)NC6=O)cc5)C4)C3)cc2)C1 (some centres unmarked) [Compound 82]
3,1 to 30,CN1C[C@H](Nc2cnn(C)c(=O)c2Br)C[C@H](c2ccc(C(=O)N3CCC(c4cccc5c4CN(C4CCC(=O)NC4=O)C5=O)CC3)cc2)C1 (some centres unmarked) [Compound 83]
4,> 30,CN1C[C@H](Nc2cnn(C)c(=O)c2)C[C@H](c2ccc(CN3CCC(c4ccc5c(c4)CN(C4CCC(=O)NC4=O)C5=O)CC3)cc2)C1 (some centres unmarked) [Compound 85]
5,1 to 30,CN1C[C@H](Nc2cnn(C)c(=O)c2Br)C[C@H](c2ccc(CN3CCC(c4ccc(C5CCC(=O)NC5=O)cc4)CC3)cc2)C1 (some centres unmarked) [Compound 87]
6,< 1,CN1C[C@H](Nc2cnn(C)c(=O)c2Br)C[C@H](c2ccc(CN3CCC4(CC3)CCN(c3ccc(C5CCC(=O)NC5=O)cc3)CC4)cc2)C1 (some centres unmarked) [Compound 88]
7,< 1,CN1C[C@H](Nc2cnn(C)c(=O)c2Br)C[C@H](c2ccc(CN3CCC4(CCN(c5ccc(C6CCC(=O)NC6=O)cc5)C4)C3)cc2)C1 (some centres unmarked) [Compound 89]
8,> 30,CN1C[C@H](Nc2cnn(C)c(=O)c2Cl)C[C@H](c2ccc(C(=O)N3CCC(c4cccc5c4CN(C4CCC(=O)NC4=O)C5=O)CC3)cc2)C1 (some centres unmarked) [Compound 91]
9,1 to 30,CN1C[C@H](Nc2cnn(C)c(=O)c2Br)C[C@H](c2ccc(CN3CCC(c4cccc5c4CN(C4CCC(=O)NC4=O)C5=O)CC3)cc2)C1 (some centres unmarked) [Compound 92]
10,< 1,CN1C[C@H](Nc2cnn(C)c(=O)c2Br)C[C@H](c2ccc(C(=O)N3CC(Oc4ccc5c(c4)CN(C4CCC(=O)NC4=O)C5=O)C3)cc2)C1 (some centres unmarked) [Compound 93]
11,> 30,CN1C[C@H](Nc2cnn(C)c(=O)c2Cl)C[C@H](c2ccc(CN3CCC(c4cccc5c4CN(C4CCC(=O)NC4=O)C5=O)CC3)cc2)C1 (some centres unmarked) [Compound 94]
12,< 1,CN1C[C@H](Nc2cnn(C)c(=O)c2Br)C[C@H](c2ccc(CN3CC(Oc4ccc5c(c4)C(=O)N(C4CCC(=O)NC4=O)C5=O)C3)cc2)C1 (some centres unmarked) [Compound 95]
13,< 1,CN1C[C@H](Nc2cnn(C)c(=O)c2Br)C[C@H](c2ccc(C(=O)N3CCC(N4CCN(c5ccc6c(c5)C(=O)N(C5CCC(=O)NC5=O)C6=O)CC4)CC3)cc2)C1 (some centres unmarked) [Compound 96]
14,< 1,CN1C[C@H](Nc2cnn(C)c(=O)c2Br)C[C@H](c2ccc(C(=O)N3CCC4(CC3)CN(c3ccc5c(c3)C(=O)N(C3CCC(=O)NC3=O)C5=O)C4)cc2)C1 (some centres unmarked) [Compound 97]
15,1 to 30,CN1C[C@H](Nc2cnn(C)c(=O)c2Br)C[C@H](c2ccc(C(=O)N3CCC4(CCN(c5ccc6c(c5)C(=O)N(C5CCC(=O)NC5=O)C6=O)C4)C3)cc2)C1 (some centres unmarked) [Compound 98]
16,< 1,CN1C[C@H](Nc2cnn(C)c(=O)c2Br)C[C@H](c2ccc(CN3CCN(Oc4cccc5c4CN(C4CCC(=O)NC4=O)C5=O)CC3)cc2)C1 (some centres unmarked) [Compound 99]
17,< 1,CN1C[C@H](Nc2cnn(C)c(=O)c2Br)C[C@H](c2ccc(C(=O)N3CCN(Cc4cccc(C5CCC(=O)NC5=O)c4)CC3)cc2)C1 (some centres unmarked) [Compound 100]
18,1 to 30,CN1C[C@H](Nc2cnn(C)c(=O)c2Br)C[C@H](c2ccc(CN3CCN(c4cccc(N5CCC(=O)NC5=O)c4)CC3)cc2)C1 [Compound 101]
19,> 30,CN1C[C@H](Nc2cnn(C)c(=O)c2Br)C[C@H](c2ccc(C(=O)N3CCN(Cc4ccc(N5CCC(=O)NC5=O)cc4)CC3)cc2)C1 [Compound 102]
